The test deals with PROVE-IT patients. Kind of test: PROVE-IT (PROVE IT-TIMI 22) genetic study: high-dose atorvastatin vs standard-dose pravastatin, death or major cardiovascular events by KIF6 719Arg carrier status. The format is in vivo, human. The protocol: Patients were followed for 18 to 36 months, with an average follow-up of 24 months.
Of the 1,724 patients who met the criteria listed above, 1344 (78.0%) were male. […] This study was approved by institutional review boards of the Brigham and Women's Hospital and all participating centers.
KIF6 genotypes were determined using allele—specific real-time PCR as previously described. Cox proportional hazard models (Wald tests) were used to assess the effect of atorvastatin-treatment on incident CHD in the KIF6 719Arg carriers and noncarriers. Continuous variables tested were age, baseline LDL-C, and baseline HDL-C levels. Categorical variables tested were smoking (current versus non-current), hypertension, and baseline diabetes. All reported p values are two-sided.

The results in this text go back to patent US8148070B2, “Genetic polymorphisms associated with coronary events and drug response, methods of detection and uses thereof” (Celera Corporation, priority 2007, dated 2012).

Consider `CC(C)c1c(C(=O)Nc2ccccc2)c(-c2ccccc2)c(-c2ccc(F)cc2)n1CC[C@@H](O)C[C@@H](O)CC(=O)O` [Atorvastatin, atorvastatin], for which the “HR, Model 1 (CHD, atorvastatin vs pravastatin)” value by setting is: (ArgArg + ArgTrp (carriers), adjusted for sex, age, smoking, hypertension, diabetes, LDL-C, HDL-C, antibiotic) 0.56; (TrpTrp (noncarriers), adjusted) 0.97. Also, the “HR, Unadjusted (CHD, atorvastatin vs pravastatin)” value came to 0.57 (ArgArg + ArgTrp, 80 mg atorvastatin per day vs 40 mg pravastatin per day (ref)) and 0.99 (TrpTrp (noncarriers), pravastatin = ref). The “On-trial CHD” value by setting is: (ArgArg + ArgTrp, totals 509 (atorvastatin), 502 (pravastatin)) 76 Number of patients; (TrpTrp, totals 359 (atorvastatin), 352 (pravastatin)) 81 Number of patients. The “unadjusted hazard ratio at 30 days” value (carriers of the KIF6 719Arg allele, 30 days after randomization, atorvastatin vs pravastatin) was found to be 0.18. The “reduction of relative risk of coronary events” value (carriers, high-dose atorvastatin vs standard-dose pravastatin) stood at 44%. Besides, the “benefit of intensive therapy compared with moderate therapy” value (noncarriers, at any time point) was “no significant benefit”.
